We go through 1 substance from patent publication US9511072B2, “Methods of modulating cell proliferation and cyst formation in polycystic kidney and liver diseases” (The Medical College of Wisconsin, Inc., priority 2006, dated 2016).

Entries after “also recorded” stand apart in the source; their conditions may differ.

One series concerns REC11 cells. In words: BrdU proliferation of EGF-stimulated REC11 cystic renal epithelial cells. The conditions noted are these: 36 hrs, after EGF 25 ng/ml for 6 hours. It is filed as cell-based, mouse. The text has this:
(§1) REC11 cystic cell line is a conditionally immortalized epithelial collecting tubule (CT) cell line derived from the cystic kidneys of the BPK mouse model of human ARPKD crossed to the ImmortoMouse. The BPK mouse as a human ARPKD model has been described in Nauta J. et al., Pediatr Nephrol 1993, 7:163-172 and Nauta J. et al., Pediatr Res 1995, 37:755-763. The procedures for immortalization, cell isolation, cell culture and the complete phenotypic characterization of this cell line have been described in detail in Sweeney W. E. et al., Am J Physiol C Physiol 2001, 281:C1695-705. All analysis and experiments were performed on REC11 cells grown for a minimum 6 days under non-permissive conditions to eliminate residual Large T.
Proliferation of REC11 cells was stimulated by exposure of the cells for 6 hours with EGF (25 ng/ml). Next, the cells were treated with vehicle, HET0016 (10 μM, a 20-HETE synthesis inhibitor), HET0016 (20 μM), DDMS (10 μM, a 20-HETE synthesis inhibitor), or WIT-002 (10 μM, a 20-HETE antagonist) for 36 hrs, pulsed with BrdU, and then stained for BrdU labeled cells to determine the degree of cell proliferation. […] Cells treated with a higher dose of HET0016 (20 μM) (column C) reduced proliferation by 75% (p<0.020). Cells treated with another chemically dissimilar inhibitor of the synthesis of 20-HETE, DDMS (10 μM) (column D), reduced proliferation by 47% (p<0.05). Cells treated with WIT-002 (10 μM) (column E) reduced proliferation by 25%.

The subject of series [1] is EGF receptor (EGFR) phosphorylation in REC12 cells. In words: Western blot of phosphorylated EGFR in normal REC12 cells. The settings on record: 10 μM, REC12 normal renal epithelial cells. It is filed as cell-based, mouse.
Text: as §1, with “T. REC12 cell line is a conditionally immortalized epithelial collecting tubule (CT) cell line derived from the wild-type Balb/C littermates. The Balb/C is the strain of mice in which the BPK mutation arose (Nauta J. et al., Pediatr Nephrol 1993, 7:163-172 and Nauta J. et al., Pediatr Res 1995, 37:755-763).” for “T.”
REC11 cells (FIG. 2, lanes A and B) and control renal epithelial cells (REC12 cells: FIG. 2, lanes C and D) were grown for 10 days. Next, the cells were exposed to vehicle (lanes A and C) or 10 μM HET0016 (lanes B and D) and then harvested for assessment of the expression of phosphorylated EGFR by Western Blot analysis.
A general note: A western blot detects proteins with antibodies after separation by electrophoresis.

A further series deals with Balb/C mice. Briefly: Chronic HET-0016 treatment of non-cystic Balb/C mice. Type of series: in vivo, mouse. The settings on record: 10 mg/kg/day i.p.
The subject of series [2] is EGFR phosphorylation in BPK renal tissues. In words: Western blot of EGFR phosphorylation in BPK renal tissue after chronic treatment. Type of series: in vivo, mouse. The settings on record: BPK mice, ip 10 mg/Kg/day, PN-7 to PN-20, medulla region. The source says: The BPK model, a murine model of ARPKD, arose as a spontaneous mutation in an inbred colony of Balb/c mice and has been extensively characterized (Nauta J et al. Pediatr Nephrol 1993, 7:163-72; Nauta J et al. Pediatr Res 1995, 37:755-63; and Sweeney W E et al. Kidney Int 2003, 64:1310-9). Affected animals die at postnatal day (PN) 24 (average) with a range of PN-21 to PN-29 days. Extrarenal manifestations include biliary proliferation and ductal ectasia (BDE). Balb/c controls were utilized in all experiments. All animal experiments were conducted in accordance with policies of the NIH Guide for the Care and Use of Laboratory Animals and the Institutional Animal Care and Use Committee (IACUC) of the Medical College of Wisconsin. Western blot analysis of EGFR phosphorylation was conducted for BPK renal tissues following 13 days (PN-7 to PN-20) of treatment with vehicle (ip) (lane A of FIG. 10) or HET0016 (ip, 10 mg/Kg/day) (lane B or FIG. 10). […] The reduced phosphorylation of the EGFR directly correlates with the reduced size of the HET0016-treated cystic kidney, reduced KW/BW ratio, and improved morphology of the HET0016-treated cystic kidney observed in the immunohistochemistry study described above in Example 3.

In another series the test system is cystic PCK CT cells. Briefly: BrdU proliferation of primary cystic PCK collecting tubule cells. It is filed as cell-based, rat. The settings on record: 10 μM, 36 hours; vehicle 28.5%±1%. The procedure:
Renal CT cells from the PCK rat were isolated as described in Sweeney W. E. et al., Am J Physiol C Physiol, 2001, 281:C1695-705, using monoclonal F-13 a principal cells specific surface marker (Fejes-Toth N et al., J Tiss Cult Meth 1991, 13:179-184).
To determine the level of proliferation in the cystic PCK CT cells, the cells were incubated with HET-0016 (10 μM) or vehicle for 36 hours. Three hours prior to the harvesting of the cells, 5-bromo-2′-deoxyuridine (BrdU) at a concentration of 30 μM was added to determine the level of cell cycle inhibition. The cells were subsequently methanol fixed and BrdU-positive cells were identified by immunohistology with biotinylated monoclonal anti-BrdU antibody (Zymed, South San Francisco, Calif.). Data were expressed as the percentage of BrdU-labeled cells per 500 counted cells. In the vehicle treated group, 28.5%±1% (n=3) were labeled with BrdU. In the HET-0016 treated group, 10.8%±1% (n=3) were labeled with BrdU.

For the next series, the system named is PCK rats. Briefly: Chronic HET0016 treatment of PCK rats (KW/BW, LW/BW, morphology). It is filed as in vivo, rat. The protocol: PCK rats, an orthologous model of human ARPKD (PKHD1), received daily IP injections of vehicle or HET0016 at 10 mg/kg/daily, starting at postnatal day 7 (PN-7). Animals were treated daily from PN-7 to PN-55 (48 doses). Kidney and liver were harvested at PN-55.

Where [3] appears, read: Balb/c (+/+), post-natal day 7-20, day 21.
Setting [4] is: 10 mg/kg/daily IP, PN-7 to PN-55.
Setting [5] is: 10 mg/kg/day IP, PN-7 to PN-55, 10 mg/kg/day.

For the substance “N-hydroxy-N-(4-butyl-2-methylphenyl)-formamidine [HET0016]”, in the series with REC11 cells (10 μM), the “reduction of proliferation (BrdU labeled cells) vs vehicle” value came out at 66%. Further, the “reduction of proliferation (BrdU labeled cells) vs vehicle” value in the series on REC11 cells (20 μM) was found to be 75%. Moreover, the “phosphorylation of EGFR” value in series [1] is given as “but not in normal renal epithelial cells; also recorded: lack of an effect”. Besides, the “kidney weight, body weight and KW/BW ratio vs vehicle” value with Balb/C mice (Balb/C mice) is “unchanged”. Besides, in the series on Balb/C mice (setting [3]), the Body weight was determined as 10.5 ± 1.3 g, the KW/BW is 1.3 ± 0.2 % and the “Kidney Weight” value amounted to 0.13 ± 0.02 g. Besides, the “phosphorylation (activation) of EGFR in renal tissue” value in series [2] is on record as “reduced the phosphorylation (activation) of EGFR”. The “cells labeled with BrdU (per 500 counted cells)” value in the series on cystic PCK CT cells is reported as 10.8%±1%. In addition, in the series with PCK rats (setting [4]), the BW is on record as 93, the “KW (% BW)” value was determined as 0.97 % BW and the “LW (% BW)” value was found to be 4.3 % BW. For the same substance, in the series with PCK rats (10 mg/kg/daily IP, vs vehicle), the “decrease in KW/BW ratio” value is given as 23%, the “decrease in LW/BW ratio” value stood at 25% and the “decrease in total body weight” value came to 14%. Besides, in the series with PCK rats (setting [5]), the “kidney morphology: cysts and tubular epithelial proliferation” value was “dramatic reduction in size and number of cysts and tubular epithelial proliferation; also recorded: dramatic reduction in cyst size and tubular epithelial proliferation”; the “liver morphology: biliary cysts and biliary epithelial proliferation” value was “dramatic reduction in size and number of cysts and reduced biliary epithelial proliferation; also recorded: dramatic reduction in the size and number of biliary cysts and in the proliferation of biliary epithelial cells”.
